Laboratory results from patent US9700344B2, “Method for treating chronic wounds with an extracellular polymeric substance solvating system” (priority 2008, dated 2017).

Assays:
[1] = system: biofilms of Pseudomonas aeruginosa PAO1, Enterococcus faecalis V583 and Staphylococcus aureus Mu50; test: Biofilm dry weight after incubation of formed three-species biofilms with treatments; type: cell-based; settings: biomass dry weight of treated mixed biofilm, 80° C. 48 hours drying; incubation 37° C., 140 rpm; triplicate; Control 126
Procedure: (§1) Pseudomonas aeruginosa PAO1 (ATCC number: BAA-47), Enterococcus faecalis V583 (ATCC number: 700802), and Staphylococcus aureus Mu50 (ATCC number: 700699) grown on agar plates made from tryptic soy broth (TSB, Sigma Chemical Co., St. Louis, Mo., USA) were inoculated into TSB broth and grown at 37° C. in a shaker for 16 hr. An aliquot was diluted in TSB broth to a series of dilutions for each individual bacteria type. The diluted bacteria were plated out to count colony forming units (CFU). They were further diluted to 1×10^6 cfu ml^−1 and mixed equally as inoculums. Bolton broth (Oxoid Ltd, Basingstock, Hampshire, England) with 50% Bovine plasma (Biomeda, Foster City, Calif., USA) was used for biofilm formation media. […]
(§2) In a series of runs the formed biofilms were washed and then incubated with the three CAZS solutions, then associated with a 30 μg/ml solution of Gentamicin sulfate (MP Biomedicals, Illkirch, France) in distilled water, or with a 20 ppm solution of 2,4,4′-trichloro-2-hydroxydiphenyl ether (Triclosan, KIC Chemicals, New Paltz, N.Y., USA) dissolved in propylene glycol (ScienceLab, Houston, Tex., USA). […] The biomass dry weight was measured as the total weight minus the empty tube weight measured before use. […] A separate set of tubes in triplicate was used for DNA extraction and quantitative PCR analysis to determine relative bacterial levels in the treated biofilms.

P. aeruginosa = test: Quantitative PCR analysis of relative bacterial levels in treated biofilms; type: cell-based, Pseudomonas aeruginosa PAO1; settings: DNA extraction and quantitative PCR of treated mixed biofilm; Control 46.8
Procedure: as §1, §2

E. faecalis = test: as above; type: cell-based, Enterococcus faecalis V583; settings: DNA extraction and quantitative PCR of treated mixed biofilm; Control 29.7
Procedure: as §1, §2

S. aureus = test: as above; type: cell-based, Staphylococcus aureus Mu50; settings: DNA extraction and quantitative PCR of treated mixed biofilm; Control 23.5
Procedure: Pseudomonas aeruginosa PAO1 (ATCC number: BAA-47), Enterococcus faecalis V583 (ATCC number: 700802), and Staphylococcus aureus Mu50 (ATCC number: 700699) grown on agar plates made from tryptic soy broth (TSB, Sigma Chemical Co., St. Louis, Mo., USA) were inoculated into TSB broth and grown at 37° C. in a shaker for 16 hr. An aliquot was diluted in TSB broth to a series of dilutions for each individual bacteria type. The diluted bacteria were plated out to count colony forming units (CFU). They were further diluted to 1×10^6 cfu ml^−1 and mixed equally as inoculums. Bolton broth (Oxoid Ltd, Basingstock, Hampshire, England) with 50% Bovine plasma (Biomeda, Foster City, Calif., USA) was used for biofilm formation media. Glass 16×150 mm test tubes with caps were autoclaved, and 7 ml biofilm formation media aseptically dispensed in each tube. The normalized cultures of the three bacteria were mixed and 10 μl portions of the combined and normalized 1×10^6 CFU ml^−1 culture were inoculated into glass tubes by ejecting the pipette tips into the tubes. […]
The resulting mixtures were stirred at 37° C. and 140 rpm for 1, 2, 3 and 4 hours. […] The biomass dry weight was measured as the total weight minus the empty tube weight measured before use. […] A separate set of tubes in triplicate was used for DNA extraction and quantitative PCR analysis to determine relative bacterial levels in the treated biofilms.

Gentamicin sulfate [20 mg/ml Gentamicin]
Dry Weight [1]: 78 mg | Relative Bacterial Levels P. aeruginosa (P. aeruginosa): 0.2 | Relative Bacterial Levels E. faecalis (E. faecalis): 50.3 | Relative Bacterial Levels S. aureus (S. aureus): 49.6

Oc1cc(Cl)ccc1Oc1ccc(Cl)cc1Cl [20 ppm Triclosan, 2,4,4′-trichloro-2-hydroxydiphenyl ether]
Dry Weight [1]: 88 mg | Relative Bacterial Levels P. aeruginosa (P. aeruginosa): 60.0 | Relative Bacterial Levels E. faecalis (E. faecalis): 39.9 | Relative Bacterial Levels S. aureus (S. aureus): 0.13
